“Also recorded” adds a separate entry of the source.
Experiments:
[1] = Identification of DHM metabolites in serum and brain by UPLC-QqQ/MS; type: in vivo, mice; conditions: for Detection of metabolite in serum: mice, following DHM 50 mg/kg IP and PO; for Detection of metabolite in brain samples: male and female mice 15 min post DHM IP 50 mg/kg
Procedure: Eight-week-old male and female C57BL/6J mice (Jackson’s Laboratories, Bar Harbor, ME, USA) were housed 4 mice to a cage (separated by sex) and maintained on 12-h light, 12-h dark cycles (lights on at 0700 h) in the animal facility at the Department of Animal Sciences, Rutgers University. Following 1-week acclimation, animals were given ad libitum access to water and a polyphenol-free diet (PFD; 3.82 kcal/g, 10% fat, 20% protein, 70% carbohydrate; D12450H; Research Diets, Inc., New Brunswick, NJ, USA) for at least 10 days. For PK studies, after an overnight fast, mice were administered 50 mg/kg DHM (dissolved in 0.9% saline with 10% DMSO) by either IP injection or oral gavage. Oral gavage was performed using single-use, sterile plastic feeding tubes for mice (20 ga × 30 mm; cat# FTP-20-30, Instech Laboratories, (Plymouth Meeting, PA, USA). Mice were deeply anesthetized with 5% isoflurane mixed with oxygen, and blood was collected by cardiac puncture. Following cardiac puncture, animals were exsanguinated and transcardial perfusion with 0.9% saline was performed to ensure blood removal from the brain tissue. Blood and brain samples were collected from a total of 85 mice at 0.25, 0.75, 1.5, 3, 6, 12, 24 h (3–4 mice for each sex and timepoint). Tissues were immediately homogenized with 0.2% formic acid at 1:2 (w/v), and frozen at −80 °C until analysis. Blood was centrifuged at 3000× g for 10 min at 4 °C to isolate serum. For efficacy studies, mice (n = 8/sex) were fasted at 5 h prior to Ethanol gavage 5 g/kg (37% Ethanol in water). DHM 50 mg/kg IP (dissolved in 0.9% saline with 10% DMSO) was administered at 0, 15, 45, 90 and 180 min prior to Ethanol oral gavage. Each mouse was tested at each time point 7 days apart over 6-week period. At the time of Ethanol gavage, mice were placed in oversized conical holders (L: 152 mm X W: 37 mm) and observed for ability to return upright upon being placed in a supine position. Duration of LORR was determined by ability to return upright 3 times within 30 s. To determine whether ethanol-induced tolerance developed, one week (Week 1; Baseline) prior to the 6-week repeated DHM dosing study all mice were oral dose with ethanol (5 g/kg) without any IP injection and LORR was measured. Mice were then re-tested in a similar fashion with oral ethanol 1 week after the DHM 6-week period (Week 8; Post). […] All animal studies were approved by the Institutional Animal Care and Use Committee of Rutgers University (Bello; PROTO999900014, OLAW #A3262-01, 15 March 2017) and complied with NIH Guide for the Care and Use of Laboratory Animals.
All serum samples were stored at −80 °C and conditioned to room temperature prior to analysis. An aliquot of 100 µL of serum, 20 µL 4M HCl, and 50 µL of internal standard (IS) solution (417 ng/mL isoquercetin in EtOAc) were combined in an Eppendorf tube. An aliquot of 500 µL of EtOAc was added and samples were vortexed for 30 s. Samples were then centrifuged at 3000× g for 2 min and the supernatant transferred to a glass vial. Samples were extracted 2 more times with EtOAc and the supernatant added to the corresponding vial containing 10 µL of 2% ascorbic acid in methanol (MeOH). Samples were then dried under vacuum, reconstituted with 100 µL of 45% MeOH in water with 0.1% formic acid (FA), centrifuged at 16,000× g for 10 min and transferred to an HPLC vial for analysis.
Whole brain samples were homogenized in FA. All brain homogenates were stored at −80 °C and conditioned to room temperature prior to analysis. An aliquot of 300 µL of brain homogenate was added to 50 µL IS solution (417 ng/mL in EtOAc) and 500 µL of EtOAc in an Eppendorf tube. Samples were then vortexed for 30 s and sonicated for 1 min. Samples were centrifuged for 2 min at 3000× g and the supernatant transferred to a glass vial with 10 µL of 2% ascorbic acid in methanol. Samples were extracted two more times with 500 µL EtOAc and the supernatant transferred to the corresponding vial and dried under vacuum. […]

[2] = target: T1, α5β3γ2 GABAA receptors (Homo sapiens, UniProt P18507+P28472+P31644); assay: Two-electrode voltage clamp electrophysiology in Xenopus oocytes in the presence of GABA; type: cell-based; conditions: compound 10 µM, GABA 10 µM
T1 construct: expressed in transfected cells; host or cells: Xenopus oocytes (injected with cDNA)
T1 sequence (P31644 32-462): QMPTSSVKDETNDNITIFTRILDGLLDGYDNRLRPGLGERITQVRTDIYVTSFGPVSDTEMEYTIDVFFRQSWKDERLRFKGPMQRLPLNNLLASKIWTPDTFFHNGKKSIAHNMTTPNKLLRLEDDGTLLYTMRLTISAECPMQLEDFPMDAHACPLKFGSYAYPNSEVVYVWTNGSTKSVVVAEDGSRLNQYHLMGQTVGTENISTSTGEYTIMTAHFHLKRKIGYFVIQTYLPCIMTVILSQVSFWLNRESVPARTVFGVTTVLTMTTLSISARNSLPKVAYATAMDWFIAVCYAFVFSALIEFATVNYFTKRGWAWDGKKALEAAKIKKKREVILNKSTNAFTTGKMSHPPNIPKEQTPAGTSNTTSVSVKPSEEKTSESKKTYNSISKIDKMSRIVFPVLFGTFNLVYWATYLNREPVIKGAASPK
T1 sequence (P28472 26-473): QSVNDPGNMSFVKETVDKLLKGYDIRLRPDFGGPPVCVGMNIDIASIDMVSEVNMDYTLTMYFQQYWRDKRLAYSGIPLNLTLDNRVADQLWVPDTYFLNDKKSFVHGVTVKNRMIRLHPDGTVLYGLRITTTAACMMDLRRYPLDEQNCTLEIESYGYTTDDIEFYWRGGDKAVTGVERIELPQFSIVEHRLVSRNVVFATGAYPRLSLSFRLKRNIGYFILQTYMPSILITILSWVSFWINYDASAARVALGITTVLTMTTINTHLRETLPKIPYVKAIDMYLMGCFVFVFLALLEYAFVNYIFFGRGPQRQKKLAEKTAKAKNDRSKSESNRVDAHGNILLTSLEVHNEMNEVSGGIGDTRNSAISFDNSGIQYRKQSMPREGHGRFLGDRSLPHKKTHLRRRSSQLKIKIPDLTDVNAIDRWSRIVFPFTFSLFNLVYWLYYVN
T1 sequence (P18507 40-475): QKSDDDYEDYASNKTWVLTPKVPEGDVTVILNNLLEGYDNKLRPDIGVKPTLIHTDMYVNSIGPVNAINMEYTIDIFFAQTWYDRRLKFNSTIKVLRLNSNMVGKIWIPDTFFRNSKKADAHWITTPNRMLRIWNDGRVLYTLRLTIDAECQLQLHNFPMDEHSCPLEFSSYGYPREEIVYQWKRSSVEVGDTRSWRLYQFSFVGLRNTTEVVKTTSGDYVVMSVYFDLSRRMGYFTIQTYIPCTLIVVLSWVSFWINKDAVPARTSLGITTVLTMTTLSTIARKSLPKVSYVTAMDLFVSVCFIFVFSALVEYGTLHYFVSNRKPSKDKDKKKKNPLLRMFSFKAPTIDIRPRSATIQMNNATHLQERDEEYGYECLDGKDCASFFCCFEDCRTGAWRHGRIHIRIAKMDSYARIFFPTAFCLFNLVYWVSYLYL
Procedure: Xenopus oocytes were stored in incubation media (pH 7.5), consisting of ND96 supplemented with 2 mM sodium pyruvate, […] gentamycin, and 10 mL heat inactivated HyClone horse serum. Stage 4 to 5 oocytes were injected with 40 nL of cDNA coding for α5, β3, and γ2 subunits in a ratio of 1:1:10, utilizing a Drummond Nanoject III. Injected oocytes were stored at 18 °C and used in electrophysiology studies within 2–7 days of injection.
Whole cell two-electrode voltage clamp (TEVC) recording were conducted on oocytes in the presence of GABA, according to previously reported methods. Oocytes were voltage clamped at a membrane potential of −70 mV. The oocyte recording chamber was continuously perfused with modified bath solution (MBS) with select compound (10 µM) and GABA (10 µM), with a final concentration of 1% DMSO [22, 44]. […] Oocytes were perfused at a rate of 3 mL/min. Electrophysiology recordings were conducted in triplicate compound for each compound. The change of GABAAR activity was determined by comparison of GABAAR potentiation to the EC20 with control saline in the presence of GABA.
Pharmacokinetic parameters were calculated using noncompartmental analysis. Elimination half-life (T1/2) was calculated with R software from the linear regression of the terminal phase of the log serum concentration-time curve. The AUC0→24 was calculated with OriginLab software by trapezoidal analysis of the serum concentration-time plot. Cmax and Tmax were determined directly from observed data. Data are expressed as mean ± SEM. Statistical significance between AUC0→24 among test groups was calculated with an independent t-test (GraphPad software, San Diego, CA, USA). Time to LORR was analyzed by repeated measured ANOVA. Tolerance was determined by mean split in LORR response and confirmed with paired t-test (Week 1 vs. Week 8). Statistical significance of serum concentrations for individual time points was calculated using a two-way analysis of variance (ANOVA) analysis. Post hoc Bonferroni tests were performed when justified. Statistical significance of electrophysiology results compound GABAergic modulation was determined using a paired t-test (Vehicle control vs. Compound, GraphPad software, San Diego CA, USA). p < 0.05 was considered significant.

Compound	Detection of metabolite in serum [1]	GABAAR potentiation [2]	GABAAR potentiation ([2]; mean ± SEM)	Detection of metabolite in brain samples [1]
COc1cc(C2Oc3cc(O)cc(OC4OC(C(=O)O)C(O)C(O)C4O)c3C(=O)C2O)cc(O)c1O (stereo not drawn) [G-3′-Me-DHM, glucuronide-3′-O-methoxy-dihydromyricetin]	detected			
glucuronide-dehydroxy-dihydromyricetin [G-DeOH-DHM]	detected			
O=C1c2c(O)cc(O)cc2OC(c2cc(O)cc(O)c2)C1O (stereo not drawn) [4′-DeOH-DHM, 4′-dehydroxy-dihydromyricetin]	detected; also recorded: trace levels	+5.2%	+5.3 ± 2.0	
O=C1c2c(OC3OC(C(=O)O)C(O)C(O)C3O)cc(O)cc2OC(c2cc(O)c(O)c(O)c2)C1O (stereo not drawn) [G-DHM, glucuronide-dihydromyricetin]	detected			
COc1cc(C2Oc3cc(O)cc(O)c3C(=O)C2O)cc(O)c1O (stereo not drawn) [3′-Me-DHM, 3′-O-methyl-dihydromyricetin]	detected			trace levels
COc1c(O)cc([C@H]2Oc3cc(O)cc(O)c3C(=O)[C@@H]2O)cc1O (racemic) [4′-Me-DHM, 4′-O-methyl-dihydromyricetin]	detected	−12.6%		trace levels
COc1c(O)cc(C2Oc3cc(O)cc(OC4OC(C(=O)O)C(O)C(O)C4O)c3C(=O)C2O)cc1O (stereo not drawn) [G-4′-Me-DHM]	detected			

From article PMC8307506, “Identification of Dihydromyricetin and Metabolites in Serum and Brain Associated with Acute Anti-Ethanol Intoxicating Effects in Mice” (International Journal of Molecular Sciences, 2021)
